Test results reported in article PMC8036666, “Biological and Physico-Chemical Characteristics of Arginine-Rich Peptide Gemini Surfactants with Lysine and Cystine Spacers” (International Journal of Molecular Sciences, 2021).
In brackets after ≈: the same amount, converted by molar mass. Like-named read-outs stand apart in the source and are kept apart here. Where a SMILES comes first, the peptide text is derived from it. Bridges are numbered along the chain shown (N, C = ends). Roman numbers before positions name the chains, in order. [ ]: non-standard residue; d: D form. The star is where a group is joined. Nle = CCCC[C@H](N)C(=O)O; Octanoyl = CCCCCCCC(=O)*

Key:
[1] = system: HaCaT cells; format: cell-based, human; settings: 24 h
Experimental: Cells were trypsinized, and the medium was renewed 2–3 times per week. The cytotoxicity of compounds was assessed by the determination of cell metabolic activity by colorimetric CellTilter 96® Aqueous One Solution Cell Proliferation Assay (Promega, Madison, WI, USA), according to the manufacturer’s instructions. […] Every compound was medium-soluble in 37 °C; thus, the control cells were cultured with the medium. Serial dilutions of the tested compounds were always prepared prior to use. Cells were incubated with drugs for 24 h, and then, 20 μL of the CellTiter 96®AqueousOne Solution Reagent was added to each well containing cells maintained in 100 μL of culture medium.

[2] = system: human red blood cells (hRBCs); experiment: Hemolysis assay; format: cell-based; settings: 1 h
Experimental: The hemolysis assay was performed by using the method reported previously. Fresh human red blood cells (hRBCs) with anticoagulant (EDTA) were rinsed three times with a PBS by centrifugation at 800× g for 10 min and diluted with PBS. The compounds were serially diluted on a 96-well microtiter polystyrene plate, and hRBCs were added up to a final volume of 100 μL. The compound concentration ranged between 0.5 and 256 μg/mL and the final hRBCs concentration was 4% (v/v). Controls for zero (blank) and 100% hemolysis consisted of hRBCs suspended in PBS and 1% of Triton-X 100 (Carl Roth GmbH, Karlsruhe, Germany), respectively. The plate was incubated for 1 h at 37 °C and then centrifuged (800× g, 10 min, 4 °C). Subsequently, the supernatant was […] to new microtiter plates, and the absorbance at 540 nm was measured (Multiskan GO Microplate Spectrophotometer, Thermo Fisher Scientific, Vantaa, Finland). All experiments were conducted in triplicate. HC50 was calculated using an ic50.tk tool. The protocol of the study was approved by the local Bioethics Committee at the Medical University of Gdańsk (NKBBN/262/2019, approval date: 10 June 2019).

[3] = system: Staphylococcus aureus ATCC 33591
Experimental: The Acinetobacter baumannii ATCC BAA-1605, Enterococcus faecium ATCC 700221, Escherichia coli ML-35 ATCC 43827, Klebsiella aerogenes ATCC 13048, Klebsiella pneumoniae ATCC 700603, Pseudomonas aeruginosa ATCC 9027, Staphylococcus aureus ATCC 25923, Staphylococcus aureus ATCC 33591, Candida albicans ATCC 10231, Candida glabrata ATCC 15126, strains were acquired from the American Type Culture Collection (ATCC). All the strains were stored at −80 °C in Roti-Store cryo vials and before the tests were transferred into fresh Mueller–Hinton broth (MHB, Biocorp, Warsaw, […], Steinheim, Germany) for fungi and incubated for 24 h at 37 °C. Then, the cultures were seeded on the Mueller–Hinton agar (BioMaxima, Lublin, Poland) or Sabouraud dextrose agar (SDA, BioMaxima, Lublin, Poland) plates, respectively, and incubated as just mentioned. These agar cultures were used for further microbiological assays. […]
The MICs were determined by the broth microdilution method according to the Clinical and Laboratory Standard Institute guidelines. […] The experiments were conducted on 96-well microtiter polystyrene plates (Kartell, Noviglio, Italy). The growth was assessed visually after incubation, and the MIC was assumed as the lowest peptide concentration at which a noticeable growth of microorganisms was inhibited. All experiments were conducted in triplicate.

[4] = system: Enterococcus faecium ATCC 700221; format: cell-based
Experimental: (§1) Biofilm is associated with life-threating infections due to its outstanding resistance to antibiotics. In this study, the antibiofilm characteristics of USCLs and gemini surfactants were evaluated.
(§2) The MBECs were determined as described previously using 96-well polystyrene flat-bottom plates. For this purpose, 24 h cultures of microorganisms were diluted to obtain a final density of 5.0 × 10^5 CFU/mL and 2.0 × 10^5 CFU/mL of bacteria and fungi, respectively. Microorganisms were diluted in MHB or RPMI-1640 with 2% D-glucose (bacteria and fungi, respectively). Briefly, 100 µL of cell suspension was added into the test plates. After 24 h of incubation at 37 °C, the wells were rinsed three times with a PBS (pH 7.4) to remove non-adherent cells. Subsequently, 100 μL of the test compounds in a concentration range (1–512 μg/mL) were added to each well. After 24 h of incubation at 37 °C, 20 μL of a cell viability reagent was added (resazurin, 4 g/L; Sigma Aldrich, St. Louis, MO, USA). The MBEC was read after 1 h. The determined values were recorded as the lowest concentration at which the reduction of resazurin (from blue to pink) was lower or equal to 10 ± 0.5% as compared to the positive (100%) and negative (0%) controls. The reduction was monitored by measuring absorbance at 570 nm (reduced) and 600 nm (oxidized) using a microplate spectrophotometer (Multiskan GO Microplate Spectrophotometer, Thermo Fisher Scientific, Vantaa, Finland). All experiments were conducted in triplicate.

[5] = system: Staphylococcus aureus ATCC 25923; format: cell-based
Experimental: as §1, §2

[6] = system: Candida albicans ATCC 10231; format: cell-based
Experimental: as §1, §2

[7] = system: Pseudomonas aeruginosa ATCC 9027; format: cell-based
Experimental: as §1, §2

[8] = system: Acinetobacter baumannii ATCC BAA 1605; format: cell-based
Experimental: as §1, §2

[9] = system: Candida glabrata ATCC 15126; format: cell-based
Experimental: as §1, §2

[10] = system: Staphylococcus aureus ATCC 33591; format: cell-based
Experimental: as §1, §2

[11] = system: Klebsiella pneumoniae ATCC 700603; format: cell-based
Experimental: as §1, §2

[12] = system: Klebsiella aerogenes ATCC 13048; format: cell-based
Experimental: as §1, §2

Row | SMILES | IC50 [1] | HC50 ([2]; red cells of human) | MIC Staphylococcus aureus ATCC 33591 ([3]; ATCC 33591, 24 h) | MBEC Enterococcus faecium ATCC 700221 ([4]; ATCC 700221, 24 h) | MBEC Staphylococcus aureus ATCC 25923 ([5]; ATCC 25923, 24 h) | MBEC Candida albicans ATCC 10231 ([6]; ATCC 10231, 24 h) | MBEC Pseudomonas aeruginosa ATCC 9027 ([7]; ATCC 9027, 24 h) | MBEC Acinetobacter baumannii ATCC BAA 1605 ([8]; ATCC BAA 1605, 24 h) | MBEC Candida glabrata ATCC 15126 ([9]; ATCC 15126, 24 h) | MBEC Staphylococcus aureus ATCC 33591 ([10]; ATCC 33591, 24 h) | MBEC Klebsiella pneumoniae ATCC 700603 ([11]; ATCC 700603, 24 h) | MBEC Klebsiella aerogenes ATCC 13048 ([12]; ATCC 13048, 24 h) | also measured
1 | CCCCCCCC(=O)N[C@@H](Cc1ccccc1)C(=O)N[C@@H](CCCNC(=N)N)C(=O)N[C@@H](CCCNC(=N)N)C(=O)N[C@@H](CSSC[C@H](NC(=O)[C@H](CCCNC(=N)N)NC(=O)[C@H](CCCNC(=N)N)NC(=O)[C@H](Cc1ccccc1)NC(=O)CCCCCCC)C(N)=O)C(N)=O [Compound C5] (I: Octanoyl-FRRC-NH2 / II: Octanoyl-FRRC-NH2; disulfide I:4-II:4) | – | – | – | – | – | – | – | – | – | – | – | – | IC50 ([1]; HaCaT, MTS): 146.63 ± 14.95 µg/mL (≈ 104 µM); HC50 ([2]; hRBCs 4% (v/v), 37 °C): 117.06 ± 4.60 µg/mL; MIC Staphylococcus aureus ATCC 33591 ([3]; planktonic culture): 2 µg/mL (≈ 1.42 µM); MBEC Enterococcus faecium ATCC 700221 ([4]; 24 h biofilm on polystyrene): 8 µg/mL; MBEC Staphylococcus aureus ATCC 25923 ([5]; 24 h biofilm on polystyrene): 64 µg/mL; MBEC Candida albicans ATCC 10231 ([6]; 24 h biofilm on polystyrene): 128 µg/mL; MBEC Pseudomonas aeruginosa ATCC 9027 ([7]; 24 h biofilm on polystyrene): 512 µg/mL; MBEC Acinetobacter baumannii ATCC BAA 1605 ([8]; 24 h biofilm on polystyrene): 512 µg/mL; MBEC Candida glabrata ATCC 15126 ([9]; 24 h biofilm on polystyrene): 256 µg/mL; MBEC Staphylococcus aureus ATCC 33591 ([10]; 24 h biofilm on polystyrene): 8 µg/mL; MBEC Klebsiella pneumoniae ATCC 700603 ([11]; 24 h biofilm on polystyrene): 256 µg/mL; MBEC Klebsiella aerogenes ATCC 13048 ([12]; 24 h biofilm on polystyrene): 256 µg/mL
2 | CCCCCCCC(=O)N[C@@H](CCCC)C(=O)N[C@@H](CCCNC(=N)N)C(=O)N[C@@H](CCCNC(=N)N)C(=O)N[C@@H](CSSC[C@H](NC(=O)[C@H](CCCNC(=N)N)NC(=O)[C@H](CCCNC(=N)N)NC(=O)[C@H](CCCC)NC(=O)CCCCCCC)C(N)=O)C(N)=O [Compound C6] (I: Octanoyl-[Nle]RRC-NH2 / II: Octanoyl-[Nle]RRC-NH2; disulfide I:4-II:4) | 248.83 ± 18.81 µg/mL (≈ 185 µM) | >256 µg/mL | 2 µg/mL (≈ 1.49 µM) | 8 µg/mL | 32 µg/mL | 256 µg/mL | 512 µg/mL | 512 µg/mL | 512 µg/mL | 8 µg/mL | 256 µg/mL | 256 µg/mL | –
3 | CCCCCCC(CCCC)C(=O)N[C@@H](CCCNC(=N)N)C(=O)N[C@@H](CCCNC(=N)N)C(=O)N[C@@H](CSSC[C@H](NC(=O)[C@H](CCCNC(=N)N)NC(=O)[C@H](CCCNC(=N)N)NC(=O)C(CCCC)CCCCCC)C(N)=O)C(N)=O (stereo partly drawn) [Compound C7] | 163.98 ± 13.66 µg/mL (≈ 134 µM) | >256 µg/mL | 2 µg/mL (≈ 1.63 µM) | 4 µg/mL | 32 µg/mL | 64 µg/mL | 512 µg/mL | 256 µg/mL | 128 µg/mL | 8 µg/mL | 256 µg/mL | 128 µg/mL | –
